Data as given in ChEMBL document CHEMBL1201862, “PubChem BioAssay data set” (2004).
Active and inactive are the calls of the source.

Columns and labels:
[1] = target: Glyceraldehyde-3-phosphate dehydrogenase (Homo sapiens, UniProt P04406)
[2] = target: Alkaline phosphatase, placental type (Homo sapiens, UniProt P05187); assay: PLAP enzyme inhibitors, confirmation, biochemical, luminescence (AID 1512); assay type: functional
[3] = target: T1, Alkaline phosphatase, tissue-nonspecific isozyme (Homo sapiens, UniProt P05186); assay: human TNAP enzyme inhibitors, SAR follow-up, biochemical, luminescent, dose response (AID 1056)
T1 sequence (P05186 whole entry): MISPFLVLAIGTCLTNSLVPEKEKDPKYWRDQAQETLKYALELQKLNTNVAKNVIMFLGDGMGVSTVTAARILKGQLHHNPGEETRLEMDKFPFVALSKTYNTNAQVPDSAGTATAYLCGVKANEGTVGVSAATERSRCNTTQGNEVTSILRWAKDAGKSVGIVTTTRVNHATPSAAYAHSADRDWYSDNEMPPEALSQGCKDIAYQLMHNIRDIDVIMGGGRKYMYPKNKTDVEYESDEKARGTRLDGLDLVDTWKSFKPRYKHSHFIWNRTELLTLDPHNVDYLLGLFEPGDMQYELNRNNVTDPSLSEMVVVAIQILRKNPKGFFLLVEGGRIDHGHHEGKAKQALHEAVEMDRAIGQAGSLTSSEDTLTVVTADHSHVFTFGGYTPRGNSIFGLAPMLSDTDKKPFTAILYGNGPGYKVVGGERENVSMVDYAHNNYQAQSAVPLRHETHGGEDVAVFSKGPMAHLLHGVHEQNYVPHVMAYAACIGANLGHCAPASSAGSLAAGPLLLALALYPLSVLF

[4] = target: Hexokinase (Trypanosoma brucei, UniProt Q38C41); assay: Confirmation assay for inhibitors of Trypanosoma brucei hexokinase 1-Analogue-first series. [Related pubchem assays (depositor defined):AID1430, AID1632, AID2516, AID2560, AID2579, AID2600, AID449725, AID492951]; assay type: functional
[5] = target: T2, Short transient receptor potential channel 4 (Mus musculus, UniProt Q9QUQ5); assay: TRPC4 positive allosteric modulators, dose response, cell-based, HEK293 TRPC4/mu-opioid, Fluo-4 calcium, EC20 DAMGO (AID 434941); assay type: functional
T2 sequence (Q9QUQ5 whole entry): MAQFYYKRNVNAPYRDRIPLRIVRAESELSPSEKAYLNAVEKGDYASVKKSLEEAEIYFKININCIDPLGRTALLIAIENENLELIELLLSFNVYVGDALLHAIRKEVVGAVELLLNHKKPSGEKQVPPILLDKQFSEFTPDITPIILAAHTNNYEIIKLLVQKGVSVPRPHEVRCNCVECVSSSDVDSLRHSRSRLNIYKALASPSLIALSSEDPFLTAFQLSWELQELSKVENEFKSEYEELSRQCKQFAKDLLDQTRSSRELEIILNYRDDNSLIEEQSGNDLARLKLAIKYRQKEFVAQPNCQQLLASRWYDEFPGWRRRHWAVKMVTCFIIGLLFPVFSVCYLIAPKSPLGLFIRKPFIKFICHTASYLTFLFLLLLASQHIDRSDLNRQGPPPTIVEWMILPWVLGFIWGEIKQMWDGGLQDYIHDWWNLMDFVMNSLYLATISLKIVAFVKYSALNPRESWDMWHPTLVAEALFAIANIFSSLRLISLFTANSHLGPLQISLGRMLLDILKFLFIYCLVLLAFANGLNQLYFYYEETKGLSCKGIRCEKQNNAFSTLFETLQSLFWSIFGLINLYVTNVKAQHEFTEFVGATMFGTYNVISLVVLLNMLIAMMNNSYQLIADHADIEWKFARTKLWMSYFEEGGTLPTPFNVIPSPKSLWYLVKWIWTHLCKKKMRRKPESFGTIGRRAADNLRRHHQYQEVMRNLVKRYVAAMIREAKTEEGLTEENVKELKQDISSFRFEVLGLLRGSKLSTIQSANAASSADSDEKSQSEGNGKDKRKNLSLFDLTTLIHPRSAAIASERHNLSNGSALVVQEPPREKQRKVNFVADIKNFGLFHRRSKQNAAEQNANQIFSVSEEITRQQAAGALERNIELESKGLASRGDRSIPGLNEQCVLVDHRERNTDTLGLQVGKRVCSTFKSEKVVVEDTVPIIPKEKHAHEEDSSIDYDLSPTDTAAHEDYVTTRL

[6] = target: Mu-type opioid receptor (Homo sapiens, UniProt P35372); assay: SAR Analysis of Antagonists of the MOR Receptor using an Image-Based Assay - Set 3. [Related pubchem assays (depositor defined):AID1777, AID1785, AID1786, AID1966, AID2133, AID2136, AID2284, AID2285, AID2420]; assay type: functional
[7] = target: T3, Kappa-type opioid receptor (Homo sapiens, UniProt P41145); assay: SAR analysis of small molecule antagonists of the kappa opioid receptor via a luminescent beta-arrestin assay - Set 6. [Related pubchem assays (depositor defined):AID1777, AID1778, AID1785, AID1786, AID1966, AID2133, AID2136, AID2285]; assay type: functional
[8] = target: Delta-type opioid receptor (Homo sapiens, UniProt P41143); assay: SAR Analysis of Antagonists of the DOR Receptor using an Image-Based Assay - Set 3. [Related pubchem assays (depositor defined):AID1777, AID1785]; assay type: functional;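 further: U2OS cells expressing DOR1 and beta-arrestin GFP stimulated with 100 nM SNC80; imaging of GFP-tagged beta-arrestin moving into spots after receptor activation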
[9] = target: T3, Kappa-type opioid receptor; assay: SAR analysis of small molecule antagonists of the kappa opioid receptor via a luminescent beta-arrestin assay - Set 3. [Related pubchem assays (depositor defined):AID1777, AID1778, AID1785, AID1786, AID1966, AID2133, AID2136, AID2285, AID2495]; assay type: functional
[10] = target: T3, Kappa-type opioid receptor; assay: SAR analysis of Antagonists of the Kappa Opioid Receptor (KOR) using an Image-Based Assay - Set 3. [Related pubchem assays (depositor defined):AID1777, AID1785]; assay type: functional
[11] = target: T3, Kappa-type opioid receptor; assay: SAR analysis of Antagonists of the Kappa Opioid Receptor (KOR) using an Image-Based Assay - Set 4. [Related pubchem assays (depositor defined):AID1777, AID1785]; assay type: functional
[12] = target: Integrin alpha-4 (Homo sapiens, UniProt P13612); assay: VLA-4 integrin allosteric ligands, SAR follow-up, cell-based, LIBS antibody binding, flow cytometry (AID 488791); assay type: functional
[13] = target: Troponin, cardiac muscle (Homo sapiens, UniProt P19429+P45379+P63316); assay: inhibitors of cardiac thin filament calcium sensitivity, dose response, biochemical, fluorescence, cardiac regulated thin filaments, triplicate IC50 (AID 504742); assay type: protein-complex assay
[14] = target: Nonstructural protein 1 (Influenza A virus, UniProt Q194T2); assay type: functional, Influenza A virus (A/California/07/2009(H1N1))
[15] = target: T4, Cysteine protease ATG4B (Homo sapiens, UniProt Q9Y4P1); assay type: functional;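 further: Fluorescence-based dose-response confirmation assay measuring inhibition of ATG4B activity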
T4 sequence (Q9Y4P1 whole entry): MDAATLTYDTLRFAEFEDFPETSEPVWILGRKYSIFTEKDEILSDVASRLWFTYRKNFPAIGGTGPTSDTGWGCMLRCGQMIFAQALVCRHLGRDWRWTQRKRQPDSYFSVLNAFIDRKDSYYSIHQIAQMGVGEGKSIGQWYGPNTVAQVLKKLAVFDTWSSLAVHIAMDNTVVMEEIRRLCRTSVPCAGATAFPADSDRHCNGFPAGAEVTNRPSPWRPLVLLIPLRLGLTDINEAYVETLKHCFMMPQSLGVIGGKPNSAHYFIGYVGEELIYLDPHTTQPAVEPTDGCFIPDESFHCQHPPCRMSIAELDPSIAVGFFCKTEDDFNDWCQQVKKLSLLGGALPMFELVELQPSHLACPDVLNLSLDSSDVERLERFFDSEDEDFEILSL

[16] = target: Phospholipase A2 (Homo sapiens, UniProt P04054); assay type: functional;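 further: confirmatory dose-response counterscreen on phospholipase A2, testing hits that came from an ultra-high-throughput screen for ATG4B inhibitors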
[17] = target: Dual specificity tyrosine-phosphorylation-regulated kinase 1A (Rattus norvegicus, UniProt Q63470); assay type: biochemical, Homo sapiens
[18] = HeLa cell cytotoxicity, dose response, cytotoxicity control for MgcRacGAP inhibitor project (AID 624300); assay type: functional
[19] = target: T5, Rac GTPase-activating protein 1 (Homo sapiens, UniProt Q9H0H5); assay: MgcRacGAP GTPase-activating activity inhibitors, confirmation, biochemical, ADP Hunter fluorescence, primary and confirmatory (AID 624330); assay type: functional
T5 sequence (Q9H0H5 whole entry): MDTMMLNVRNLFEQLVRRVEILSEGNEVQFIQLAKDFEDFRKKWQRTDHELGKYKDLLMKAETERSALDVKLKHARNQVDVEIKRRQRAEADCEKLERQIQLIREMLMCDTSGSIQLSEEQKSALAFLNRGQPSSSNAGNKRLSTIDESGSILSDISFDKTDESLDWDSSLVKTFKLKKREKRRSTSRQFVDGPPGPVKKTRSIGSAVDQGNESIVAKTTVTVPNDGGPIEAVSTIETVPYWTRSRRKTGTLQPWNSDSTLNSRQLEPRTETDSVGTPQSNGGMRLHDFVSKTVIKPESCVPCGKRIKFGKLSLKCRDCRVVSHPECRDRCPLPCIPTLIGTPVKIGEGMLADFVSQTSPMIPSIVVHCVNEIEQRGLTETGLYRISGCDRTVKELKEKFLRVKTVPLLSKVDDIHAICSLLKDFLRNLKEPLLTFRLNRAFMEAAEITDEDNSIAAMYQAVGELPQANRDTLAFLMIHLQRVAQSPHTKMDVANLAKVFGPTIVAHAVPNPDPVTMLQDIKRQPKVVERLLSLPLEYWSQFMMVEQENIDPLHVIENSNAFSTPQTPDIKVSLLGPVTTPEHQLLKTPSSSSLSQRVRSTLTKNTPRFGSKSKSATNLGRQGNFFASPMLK

[20] = target: T6, DNA repair protein RAD52 homolog (Homo sapiens, UniProt P43351); assay type: functional, biochemical
T6 sequence (P43351 whole entry): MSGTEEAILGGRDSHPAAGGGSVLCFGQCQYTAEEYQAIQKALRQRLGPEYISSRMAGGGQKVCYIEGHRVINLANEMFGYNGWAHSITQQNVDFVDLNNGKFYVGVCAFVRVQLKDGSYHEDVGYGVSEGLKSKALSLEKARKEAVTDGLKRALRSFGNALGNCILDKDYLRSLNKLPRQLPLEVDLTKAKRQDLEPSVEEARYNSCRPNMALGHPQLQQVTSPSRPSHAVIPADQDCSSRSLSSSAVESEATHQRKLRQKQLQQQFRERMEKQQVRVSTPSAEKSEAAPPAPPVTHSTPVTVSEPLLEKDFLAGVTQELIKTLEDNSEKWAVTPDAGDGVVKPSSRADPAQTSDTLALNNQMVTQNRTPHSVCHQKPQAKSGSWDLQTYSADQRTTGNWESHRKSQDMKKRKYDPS

[21] = THP-1 cell cytotoxicity, dose response, cytotoxicity control for Vif-APOBEC3G degradation inhibitor project, THP-1 cells (AID 1117359); assay type: functional; conditions: Human immunodeficiency virus 1, THP-1
[22] = target: Glutathione-S-transferase (Schistosoma japonicum, UniProt Q26513); assay: biotin-GST/anti-GST TR-FRET signal inhibitors, dose response, artefact control for Vif-APOBEC3G degradation inhibitor project, biochemical (AID 1117362); assay type: functional
[23] = Luminescence Cell-Based Dose Confirmation HTS to Identify Activators of 5'UTR Stem-Loop Driven Alpha-Synuclein mRNA Translation in H4 Neuroglioblastoma Cells. [Related pubchem assays: 1829 (Project Summary), 1814 (Primary HTS)]; assay type: functional
[24] = Luminescence Cell-Based Dose Response HTS to Identify Activators of Luciferase Translation or Activity in H4 […] Cells. [Related pubchem assays: 1829 (Project Summary), 1814 (Primary HTS)]; assay type: functional
[25] = tested on: H4; assay: Luminescence Cell-Based Dose Response HTS to Identify Activators of 5'UTR Stem-Loop Driven Prion Protein mRNA Translation in H4 Neuroglioblastoma Cells. [Related pubchem assays: 1829 (Project Summary), 1814 (Primary HTS)]; assay type: functional; conditions: Homo sapiens
[26] = target: E3 ubiquitin-protein ligase Mdm2/Protein Mdm4 (Homo sapiens, UniProt O15151+Q00987); assay: Mdm2-MdmX interaction inhibitors, dose response, luminescence detection (AID 504593); assay type: functional
E3 ubiquitin-protein ligase Mdm2/Protein Mdm4, sequence (Q00987 whole entry): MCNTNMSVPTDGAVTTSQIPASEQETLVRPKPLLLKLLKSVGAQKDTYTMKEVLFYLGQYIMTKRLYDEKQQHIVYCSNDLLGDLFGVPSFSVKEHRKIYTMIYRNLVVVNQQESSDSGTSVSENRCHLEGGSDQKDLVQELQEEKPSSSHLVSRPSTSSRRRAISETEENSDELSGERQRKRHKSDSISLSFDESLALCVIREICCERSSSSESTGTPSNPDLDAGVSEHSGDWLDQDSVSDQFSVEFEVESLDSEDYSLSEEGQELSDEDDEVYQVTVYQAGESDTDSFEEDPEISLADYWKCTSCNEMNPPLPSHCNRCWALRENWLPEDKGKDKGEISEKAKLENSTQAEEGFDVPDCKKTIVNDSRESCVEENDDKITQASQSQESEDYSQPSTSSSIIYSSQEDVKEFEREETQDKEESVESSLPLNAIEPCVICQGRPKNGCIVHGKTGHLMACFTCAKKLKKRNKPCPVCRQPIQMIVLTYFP
E3 ubiquitin-protein ligase Mdm2/Protein Mdm4, sequence (O15151 whole entry): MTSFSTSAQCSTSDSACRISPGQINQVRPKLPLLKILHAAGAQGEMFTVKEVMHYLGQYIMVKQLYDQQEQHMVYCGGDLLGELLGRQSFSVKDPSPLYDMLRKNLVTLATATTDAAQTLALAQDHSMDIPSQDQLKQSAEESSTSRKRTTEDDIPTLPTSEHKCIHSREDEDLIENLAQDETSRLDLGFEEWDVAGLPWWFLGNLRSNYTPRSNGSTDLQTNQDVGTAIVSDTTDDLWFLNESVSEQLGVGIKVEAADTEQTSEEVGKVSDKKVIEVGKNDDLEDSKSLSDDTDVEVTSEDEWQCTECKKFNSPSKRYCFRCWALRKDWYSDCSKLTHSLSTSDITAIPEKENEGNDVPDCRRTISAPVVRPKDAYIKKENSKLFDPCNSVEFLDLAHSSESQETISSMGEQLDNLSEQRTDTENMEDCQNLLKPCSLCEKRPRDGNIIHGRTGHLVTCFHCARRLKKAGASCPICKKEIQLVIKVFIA

T3 sequence (P41145 whole entry): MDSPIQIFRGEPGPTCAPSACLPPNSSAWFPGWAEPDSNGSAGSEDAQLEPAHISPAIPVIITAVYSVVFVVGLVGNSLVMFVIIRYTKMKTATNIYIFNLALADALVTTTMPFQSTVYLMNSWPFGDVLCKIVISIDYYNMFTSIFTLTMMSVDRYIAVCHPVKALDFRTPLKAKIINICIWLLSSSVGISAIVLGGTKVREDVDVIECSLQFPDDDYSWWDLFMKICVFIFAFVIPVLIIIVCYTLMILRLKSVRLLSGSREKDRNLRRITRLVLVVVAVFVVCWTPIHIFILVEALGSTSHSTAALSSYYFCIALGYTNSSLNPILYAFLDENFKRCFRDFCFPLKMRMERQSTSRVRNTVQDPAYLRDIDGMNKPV
Phospholipase A2, sequence (P04054 whole entry): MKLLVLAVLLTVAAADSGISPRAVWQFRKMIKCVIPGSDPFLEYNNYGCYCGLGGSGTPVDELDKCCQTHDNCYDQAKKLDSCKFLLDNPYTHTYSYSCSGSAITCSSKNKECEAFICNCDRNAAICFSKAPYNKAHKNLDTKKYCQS
Alkaline phosphatase, placental type, sequence (P05187 whole entry): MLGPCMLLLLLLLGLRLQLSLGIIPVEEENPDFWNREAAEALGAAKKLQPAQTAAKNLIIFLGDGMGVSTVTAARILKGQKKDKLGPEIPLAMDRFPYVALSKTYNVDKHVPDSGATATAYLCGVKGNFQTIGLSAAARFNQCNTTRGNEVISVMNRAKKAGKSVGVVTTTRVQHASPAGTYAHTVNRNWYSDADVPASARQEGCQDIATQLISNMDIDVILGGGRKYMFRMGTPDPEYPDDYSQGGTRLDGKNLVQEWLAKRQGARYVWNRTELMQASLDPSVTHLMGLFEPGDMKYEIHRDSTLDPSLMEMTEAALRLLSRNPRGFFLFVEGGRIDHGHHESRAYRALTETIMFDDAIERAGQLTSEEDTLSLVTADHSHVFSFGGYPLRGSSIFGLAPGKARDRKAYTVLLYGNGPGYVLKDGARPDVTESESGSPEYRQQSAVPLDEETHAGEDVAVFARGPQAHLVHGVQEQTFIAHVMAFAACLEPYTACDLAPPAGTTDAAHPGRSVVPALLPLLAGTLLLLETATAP
Mu-type opioid receptor, sequence (P35372 whole entry): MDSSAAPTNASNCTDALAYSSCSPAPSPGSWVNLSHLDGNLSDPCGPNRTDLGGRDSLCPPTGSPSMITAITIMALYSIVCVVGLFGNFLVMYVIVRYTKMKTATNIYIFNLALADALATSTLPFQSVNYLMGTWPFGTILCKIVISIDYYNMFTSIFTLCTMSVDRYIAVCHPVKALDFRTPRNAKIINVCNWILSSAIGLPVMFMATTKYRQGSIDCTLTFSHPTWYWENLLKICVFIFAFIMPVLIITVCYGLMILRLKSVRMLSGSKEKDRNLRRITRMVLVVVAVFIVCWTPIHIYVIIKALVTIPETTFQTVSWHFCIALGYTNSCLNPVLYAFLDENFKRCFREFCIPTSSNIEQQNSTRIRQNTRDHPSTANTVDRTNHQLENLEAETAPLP
Delta-type opioid receptor, sequence (P41143 whole entry): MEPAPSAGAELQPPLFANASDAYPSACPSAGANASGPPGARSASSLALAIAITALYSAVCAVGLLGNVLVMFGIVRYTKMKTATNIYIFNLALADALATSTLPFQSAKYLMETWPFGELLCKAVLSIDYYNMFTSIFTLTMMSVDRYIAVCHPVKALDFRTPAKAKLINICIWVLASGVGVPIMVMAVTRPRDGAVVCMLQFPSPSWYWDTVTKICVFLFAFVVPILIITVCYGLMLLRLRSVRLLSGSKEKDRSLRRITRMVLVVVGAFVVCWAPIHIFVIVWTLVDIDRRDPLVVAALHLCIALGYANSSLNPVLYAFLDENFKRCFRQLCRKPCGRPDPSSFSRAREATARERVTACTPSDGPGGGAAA
Nonstructural protein 1, sequence (Q194T2 whole entry): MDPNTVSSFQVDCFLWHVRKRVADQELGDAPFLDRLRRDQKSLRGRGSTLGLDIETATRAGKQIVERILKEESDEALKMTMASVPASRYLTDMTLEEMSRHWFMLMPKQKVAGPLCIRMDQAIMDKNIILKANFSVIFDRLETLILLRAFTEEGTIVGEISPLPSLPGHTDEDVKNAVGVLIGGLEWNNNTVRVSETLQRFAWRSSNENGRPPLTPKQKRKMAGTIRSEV
Integrin alpha-4, sequence (P13612 whole entry): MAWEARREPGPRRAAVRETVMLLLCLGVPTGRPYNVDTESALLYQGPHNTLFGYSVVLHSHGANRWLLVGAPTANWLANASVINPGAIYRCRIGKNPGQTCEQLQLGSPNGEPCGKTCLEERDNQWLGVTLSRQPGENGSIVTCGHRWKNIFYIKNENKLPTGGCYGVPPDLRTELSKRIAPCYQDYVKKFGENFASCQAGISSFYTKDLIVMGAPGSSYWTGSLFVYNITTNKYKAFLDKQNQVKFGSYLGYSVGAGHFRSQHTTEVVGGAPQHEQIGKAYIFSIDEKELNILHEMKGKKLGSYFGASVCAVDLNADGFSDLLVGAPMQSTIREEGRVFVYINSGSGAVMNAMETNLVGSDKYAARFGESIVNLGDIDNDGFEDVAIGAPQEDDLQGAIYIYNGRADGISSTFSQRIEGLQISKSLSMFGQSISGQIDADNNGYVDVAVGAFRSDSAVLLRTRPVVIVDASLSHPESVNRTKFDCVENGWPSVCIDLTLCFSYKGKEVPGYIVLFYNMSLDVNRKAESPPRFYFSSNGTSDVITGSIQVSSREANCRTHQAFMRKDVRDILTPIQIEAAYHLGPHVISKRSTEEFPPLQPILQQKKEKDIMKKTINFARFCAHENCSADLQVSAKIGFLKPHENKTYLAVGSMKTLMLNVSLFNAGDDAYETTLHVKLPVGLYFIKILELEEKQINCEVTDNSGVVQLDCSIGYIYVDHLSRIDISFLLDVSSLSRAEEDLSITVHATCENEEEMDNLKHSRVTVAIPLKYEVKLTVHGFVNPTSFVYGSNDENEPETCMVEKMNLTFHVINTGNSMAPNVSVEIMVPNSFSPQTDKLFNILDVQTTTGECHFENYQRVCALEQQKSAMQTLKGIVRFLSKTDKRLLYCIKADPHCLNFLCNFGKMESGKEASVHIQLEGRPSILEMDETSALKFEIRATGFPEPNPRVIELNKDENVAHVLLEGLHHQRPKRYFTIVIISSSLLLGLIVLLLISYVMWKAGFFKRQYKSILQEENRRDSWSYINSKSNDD
Glyceraldehyde-3-phosphate dehydrogenase, sequence (P04406 whole entry): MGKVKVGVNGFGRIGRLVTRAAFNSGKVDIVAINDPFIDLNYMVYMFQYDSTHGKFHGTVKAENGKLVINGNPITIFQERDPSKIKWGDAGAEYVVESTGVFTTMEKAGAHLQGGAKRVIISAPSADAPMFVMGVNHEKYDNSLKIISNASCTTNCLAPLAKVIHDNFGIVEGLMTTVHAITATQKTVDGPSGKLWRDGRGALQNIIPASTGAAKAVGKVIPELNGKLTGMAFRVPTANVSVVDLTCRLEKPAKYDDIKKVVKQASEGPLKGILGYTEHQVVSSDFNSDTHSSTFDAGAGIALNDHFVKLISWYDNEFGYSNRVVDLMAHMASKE
Hexokinase, sequence (Q38C41 whole entry): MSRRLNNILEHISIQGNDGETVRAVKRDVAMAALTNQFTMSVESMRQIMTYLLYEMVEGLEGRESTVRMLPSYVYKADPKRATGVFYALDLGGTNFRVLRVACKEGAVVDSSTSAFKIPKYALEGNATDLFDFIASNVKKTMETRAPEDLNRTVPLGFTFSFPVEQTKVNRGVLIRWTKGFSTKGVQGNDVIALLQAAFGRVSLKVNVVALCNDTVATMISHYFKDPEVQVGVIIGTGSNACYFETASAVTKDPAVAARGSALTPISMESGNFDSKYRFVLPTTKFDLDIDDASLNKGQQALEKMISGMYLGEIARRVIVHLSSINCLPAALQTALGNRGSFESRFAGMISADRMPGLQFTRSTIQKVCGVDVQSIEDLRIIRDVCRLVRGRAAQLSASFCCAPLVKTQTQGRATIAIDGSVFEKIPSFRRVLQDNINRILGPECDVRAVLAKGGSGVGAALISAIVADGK

SMILES: NNC(=O)c1cc(-c2ccc(Cl)cc2Cl)n[nH]1
- IC50 [1]: > 100 µM (not active)
- IC50 [2]: > 100 µM (inactive)
- IC50 [3]: 0.0684 µM (active)

SMILES: CCCCCC(=O)Nc1cc(Cl)ccc1C(=O)O
- IC50 [4]: > 25 µM (inactive)

SMILES: Cc1cc(-c2ccc(C)c(S(=O)(=O)N3CCN(c4ccccn4)CC3)c2)on1
- EC50 [5]: 4.22 µM (active)

SMILES: O=C(Cn1c(=O)c2cccn2c2cccnc21)NCCCN1CCN(c2ccccc2)CC1
- IC50 [6]: > 32 µM (inactive)
- IC50 [7]: > 20 µM (inactive)
- IC50 [8]: > 32 µM (inactive)
- IC50 [9]: 1.17 µM (active)
- IC50 [10]: 12.7 µM (inactive)
- IC50 [11]: > 32 µM (inactive)

SMILES: c1ccc2c(-c3ccc(OCCN4CCCC4)cc3)c(-c3ccsc3)sc2c1
- EC50 [12]: > 49.4 µM (inactive)

SMILES: N=C(N)c1ccc(/N=N/c2c(O)ccc3c2[nH]c2ccccc23)cc1
- IC50 [13]: 8.6 µM (active)
- IC50 [14]: 6.65 µM (active)
- IC50 [15]: 5.61 µM (active)
- IC50 [16]: 9.6 µM (active)
- AC50 [17]: 1.31 µM (active)
- CC50 [18]: 67.4 µM (active)
- IC50 [19]: 12.7 µM (active)
- AC50 [20]: 2.15 µM (active)
- CC50 [21]: 12.5 µM (active)
- IC50 [22]: 2.48 µM (active)

SMILES: CC1(C)C(=O)Nc2ccccc2N1C(=O)Cn1ncc(Cl)c(Cl)c1=O
- EC50 [23]: > 60 µM (not active)
- EC50 [24]: > 120 µM (not active)
- EC50 [25]: > 120 µM (not active)
- IC50 [26]: 5.11 µM (active)
